Experimental data from patent US11071300B2, “Pesticidally active pyrazole derivatives” (SYNGENTA PARTICIPATIONS AG, priority 2017, dated 2021).
Read-outs that look alike come from different tables or passages of the source.

Experiments:
Assay type in all cases: in vivo
Spodoptera littoralis = Spodoptera littoralis (Egyptian cotton leaf worm) leaf disc test; conditions: foliar, 72 h, application rate 200 ppm, cotton leaf discs sprayed, L1 larvae, 3 days after infestation, read-out: control (at least one of mortality, anti-feedant effect, growth inhibition)
Summary of the method: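 Five first-instar larvae per disc were placed on dried, sprayed cotton leaf discs held on agar. Test solutions were aqueous, made from 10′000 ppm DMSO stocks. At day 3, control was counted when mortality, feeding deterrence or growth inhibition exceeded the untreated discs.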

Plutella xylostella = Plutella xylostella (diamond back moth) artificial diet test; conditions: 120 h, read-out: control (mortality and growth inhibition)
Description: Plutella xylostella (Diamond Back Moth):
(§1) 24-well microtiter plates with artificial diet were treated with aqueous test solutions prepared from 10′000 ppm DMSO stock solutions by pipetting. After drying, the plates were infested with L2 larvae (10 to 15 per well). The samples were assessed for mortality and growth inhibition in comparison to untreated samples 5 days after infestation.

Diabrotica Balteata = experiment: Diabrotica balteata (corn root worm) maize sprout test; conditions: 96 h, read-out: control (mortality and growth inhibition)
Description: Diabrotica Balteata, (Corn Root Worm)
as §1, with “Maize sprouts, placed on an agar layer in 24-well” for “24-well”, “plates” for “plates with artificial diet”, “spraying.” for “pipetting.”, “(6” for “(10”, “10” for “15”, “4” for “5”

Thrips tabaci = Thrips tabaci (onion thrips) leaf disc test; conditions: foliar, 144 h, read-out: control (mortality)
Description: Thrips tabaci (Onion Thrips):
(§2) Sunflower leaf discs were placed on agar in 24-well microtiter plates and sprayed with aqueous test solutions prepared from 10′000 ppm DMSO stock solutions. After drying the leaf discs were infested with a thrips population of mixed ages. The samples were assessed for mortality 6 days after infestation.

Tetranychus urticae = Tetranychus urticae (two-spotted spider mite) leaf disc test; conditions: foliar, 192 h, read-out: control (mortality on mixed population, mobile stages)
Description: Tetranychus urticae (Two-Spotted Spider Mite):
as §2, with “Bean” for “Sunflower”, “discs” for “discs were placed”, “were” for “and”, “mite” for “thrips”, “on mixed population (mobile stages) 8” for “6”

Euschistus heros = Euschistus heros (neotropical brown stink bug) soybean leaf test; conditions: 120 h, read-out: control (mortality and growth inhibition)
Description: Euschistus heros (Neotropical Brown Stink Bug):
Soybean leaves on agar in 24-well microtiter plates were sprayed with aqueous test solutions prepared from 10′000 ppm DMSO stock solutions. After drying the leaves were infested with N2 nymphs. The samples were assessed for mortality and growth inhibition in comparison to untreated samples 5 days after infestation.

Myzus persicae = Myzus persicae (green peach aphid) leaf disc test; conditions: foliar, 144 h, read-out: control (mortality)
Description: Myzus persicae (Green Peach Aphid):
Sunflower leaf discs were placed on agar in a 24-well microtiter plate and sprayed with test solutions at an application rate of 200 ppm. After drying, the leaf discs were infested with an aphid population of mixed ages. After an incubation period of 6 DAT, samples were checked for mortality.

[1] = application rate 200 ppm, artificial diet, L2 larvae, 5 days after infestation
[2] = application rate 200 ppm, maize sprouts sprayed, L2 larvae, 4 days after infestation
[3] = application rate 200 ppm, sunflower leaf discs sprayed, mixed ages, 6 days after infestation
[4] = application rate 200 ppm, bean leaf discs sprayed, 8 days after infestation
[5] = application rate 200 ppm, soybean leaves sprayed, N2 nymphs, 5 days after infestation
[6] = application rate 200 ppm, sunflower leaf discs sprayed, mixed ages, 6 DAT

CCN(C(=O)c1cc(-c2cnn(-c3c(C(F)(F)F)c(OS(=O)(=O)C(F)(C(F)(F)F)C(F)(F)F)nn3C)c2)ccc1Cl)C1(C#N)CC1 [Compound 45, [5-[4-[4-chloro-3-[(1-cyanocyclopropyl)-ethyl-carbamoyl]phenyl]pyrazol-1-yl]-1-methyl-4-(trifluoromethyl)pyrazol-3-yl] 1,1,1,2,3,3,3-heptafluoropropane-2-sulfonate]
≥ 80%: percent control (mortality, anti-feedant effect or growth inhibition) at 200 ppm (Spodoptera littoralis) | mortality at 200 ppm (Plutella xylostella; [1]) | mortality at 200 ppm (Diabrotica Balteata; [2]) | mortality at 200 ppm (Thrips tabaci; [3]) | mortality at 200 ppm (Tetranychus urticae; [4]) | mortality at 200 ppm (Euschistus heros; [5]) | mortality at 200 ppm (Myzus persicae; [6])

CCN(C(=O)c1cc(-c2cnn(-c3c(C(F)(F)F)c(OS(=O)(=O)C(F)(C(F)(F)F)C(F)(F)F)nn3C)c2)ccc1Cl)C1CC1 [Compound 12, [5-[4-[4-chloro-3-[cyclopropyl(ethyl)carbamoyl]phenyl]pyrazol-1-yl]-1-methyl-4-(trifluoromethyl)pyrazol-3-yl] 1,1,1,2,3,3,3-heptafluoropropane-2-sulfonate]
≥ 80%: percent control (mortality, anti-feedant effect or growth inhibition) at 200 ppm (Spodoptera littoralis) | mortality at 200 ppm (Plutella xylostella; [1]) | mortality at 200 ppm (Diabrotica Balteata; [2]) | mortality at 200 ppm (Thrips tabaci; [3]) | mortality at 200 ppm (Tetranychus urticae; [4]) | mortality at 200 ppm (Euschistus heros; [5]) | mortality at 200 ppm (Myzus persicae; [6])

COC(=O)N(C(=O)c1cc(-c2cnn(-c3c(C(F)(F)F)c(OS(=O)(=O)C(F)(C(F)(F)F)C(F)(F)F)nn3C)c2)ccc1Cl)C1(C#N)CC1 [Compound 52, [5-[4-[4-chloro-3-[(1-cyanocyclopropyl)-methoxycarbonyl-carbamoyl]phenyl]pyrazol-1-yl]-1-methyl-4-(trifluoromethyl)pyrazol-3-yl] 1,1,1,2,3,3,3-heptafluoropropane-2-sulfonate]
≥ 80%: percent control (mortality, anti-feedant effect or growth inhibition) at 200 ppm (Spodoptera littoralis) | mortality at 200 ppm (Plutella xylostella) | mortality at 200 ppm (Diabrotica Balteata) | mortality at 200 ppm (Thrips tabaci) | mortality at 200 ppm (Tetranychus urticae) | mortality at 200 ppm (Euschistus heros) | mortality at 200 ppm (Myzus persicae)

C#CCN(C(=O)c1cc(-c2cnn(-c3c(C(F)(F)F)c(OS(=O)(=O)C(F)(C(F)(F)F)C(F)(F)F)nn3C)c2)ccc1Cl)C1(C#N)CC1 [Compound 50, [5-[4-[4-chloro-3-[(1-cyanocyclopropyl)-prop-2-ynyl-carbamoyl]phenyl]pyrazol-1-yl]-1-methyl-4-(trifluoromethyl)pyrazol-3-yl] 1,1,1,2,3,3,3-heptafluoropropane-2-sulfonate]
≥ 80%: percent control (mortality, anti-feedant effect or growth inhibition) at 200 ppm (Spodoptera littoralis) | mortality at 200 ppm (Plutella xylostella; [1]) | mortality at 200 ppm (Diabrotica Balteata; [2]) | mortality at 200 ppm (Thrips tabaci; [3]) | mortality at 200 ppm (Tetranychus urticae; [4]) | mortality at 200 ppm (Euschistus heros; [5]) | mortality at 200 ppm (Myzus persicae; [6])

Cn1nc(OS(=O)(=O)C(F)(C(F)(F)F)C(F)(F)F)c(C(F)(F)F)c1-n1cc(-c2cnc(Cl)c(C(=O)NC3CC3)c2)cn1 [Compound 21, [5-[4-[6-chloro-5-(cyclopropylcarbamoyl)-3-pyridyl]pyrazol-1-yl]-1-methyl-4-(trifluoromethyl)pyrazol-3-yl] 1,1,1,2,3,3,3-heptafluoropropane-2-sulfonate]
≥ 80%: percent control (mortality, anti-feedant effect or growth inhibition) at 200 ppm (Spodoptera littoralis) | mortality at 200 ppm (Plutella xylostella; [1]) | mortality at 200 ppm (Diabrotica Balteata; [2]) | mortality at 200 ppm (Thrips tabaci; [3]) | mortality at 200 ppm (Tetranychus urticae; [4]) | mortality at 200 ppm (Euschistus heros; [5]) | mortality at 200 ppm (Myzus persicae; [6])

CN(C(=O)c1cc(-c2cnn(-c3c(C(F)(F)F)c(OS(=O)(=O)C(F)(C(F)(F)F)C(F)(F)F)nn3C)c2)ccc1Cl)C1(C#N)CC1 [Compound 18, [5-[4-[4-chloro-3-[(1-cyanocyclopropyl)-methyl-carbamoyl]phenyl]pyrazol-1-yl]-1-methyl-4-(trifluoromethyl)pyrazol-3-yl] 1,1,1,2,3,3,3-heptafluoropropane-2-sulfonate]
≥ 80%: percent control (mortality, anti-feedant effect or growth inhibition) at 200 ppm (Spodoptera littoralis) | mortality at 200 ppm (Plutella xylostella; [1]) | mortality at 200 ppm (Diabrotica Balteata; [2]) | mortality at 200 ppm (Thrips tabaci; [3]) | mortality at 200 ppm (Tetranychus urticae; [4]) | mortality at 200 ppm (Euschistus heros; [5]) | mortality at 200 ppm (Myzus persicae; [6])

Cn1nc(OS(=O)(=O)C(F)(C(F)(F)F)C(F)(F)F)c(C(F)(F)F)c1-c1cc(-c2ccc(Cl)c(C(=O)NC3CC3)c2)on1 [Compound 33, [5-[5-[4-chloro-3-(cyclopropylcarbamoyl)phenyl]isoxazol-3-yl]-1-methyl-4-(trifluoromethyl)pyrazol-3-yl] 1,1,1,2,3,3,3-heptafluoropropane-2-sulfonate]
≥ 80%: percent control (mortality, anti-feedant effect or growth inhibition) at 200 ppm (Spodoptera littoralis) | mortality at 200 ppm (Plutella xylostella; [1]) | mortality at 200 ppm (Diabrotica Balteata; [2]) | mortality at 200 ppm (Thrips tabaci; [3]) | mortality at 200 ppm (Tetranychus urticae; [4]) | mortality at 200 ppm (Euschistus heros; [5]) | mortality at 200 ppm (Myzus persicae; [6])

Cn1nc(OS(=O)(=O)C(F)(C(F)(F)F)C(F)(F)F)c(C(F)(F)F)c1-n1cc(-c2ccc(Cl)c(C(=O)NC3(C#N)CC3)c2)cn1 [Compound 2, [5-[4-[4-chloro-3-[(1-cyanocyclopropyl)carbamoyl]phenyl]pyrazol-1-yl]-1-methyl-4-(trifluoromethyl)pyrazol-3-yl] 1,1,1,2,3,3,3-heptafluoropropane-2-sulfonate]
≥ 80%: percent control (mortality, anti-feedant effect or growth inhibition) at 200 ppm (Spodoptera littoralis) | mortality at 200 ppm (Plutella xylostella; [1]) | mortality at 200 ppm (Diabrotica Balteata; [2]) | mortality at 200 ppm (Thrips tabaci; [3]) | mortality at 200 ppm (Tetranychus urticae; [4]) | mortality at 200 ppm (Euschistus heros; [5]) | mortality at 200 ppm (Myzus persicae; [6])

CC(C)C(=O)N(C(=O)c1cc(-c2cnn(-c3c(C(F)(F)F)c(OS(=O)(=O)C(F)(C(F)(F)F)C(F)(F)F)nn3C)c2)ccc1Cl)C1(C#N)CC1 [Compound 60, [5-[4-[4-chloro-3-[(1-cyanocyclopropyl)-(2-methylpropanoyl)carbamoyl]phenyl]pyrazol-1-yl]-1-methyl-4-(trifluoromethyl)pyrazol-3-yl] 1,1,1,2,3,3,3-heptafluoropropane-2-sulfonate]
≥ 80%: percent control (mortality, anti-feedant effect or growth inhibition) at 200 ppm (Spodoptera littoralis) | mortality at 200 ppm (Plutella xylostella; [1]) | mortality at 200 ppm (Diabrotica Balteata; [2]) | mortality at 200 ppm (Thrips tabaci; [3]) | mortality at 200 ppm (Tetranychus urticae; [4]) | mortality at 200 ppm (Euschistus heros; [5]) | mortality at 200 ppm (Myzus persicae; [6])

CN(C(=O)c1cc(-c2cnn(-c3c(C(F)(F)F)c(OS(=O)(=O)C(F)(C(F)(F)F)C(F)(F)F)nn3C)c2)cnc1Cl)C1(C#N)CC1 [Compound 25, [5-[4-[6-chloro-5-[(1-cyanocyclopropyl)-methyl-carbamoyl]-3-pyridyl]pyrazol-1-yl]-1-methyl-4-(trifluoromethyl)pyrazol-3-yl] 1,1,1,2,3,3,3-heptafluoropropane-2-sulfonate]
≥ 80%: percent control (mortality, anti-feedant effect or growth inhibition) at 200 ppm (Spodoptera littoralis) | mortality at 200 ppm (Plutella xylostella; [1]) | mortality at 200 ppm (Diabrotica Balteata; [2]) | mortality at 200 ppm (Thrips tabaci; [3]) | mortality at 200 ppm (Tetranychus urticae; [4]) | mortality at 200 ppm (Euschistus heros; [5]) | mortality at 200 ppm (Myzus persicae; [6])

Cn1nc(OS(=O)(=O)C(F)(C(F)(F)F)C(F)(F)F)c(C(F)(F)F)c1-n1cc(-c2ccc(Cl)c(C(=O)N(C=O)C3(C#N)CC3)c2)cn1 [Compound 57, [5-[4-[4-chloro-3-[(1-cyanocyclopropyl)-formyl-carbamoyl]phenyl]pyrazol-1-yl]-1-methyl-4-(trifluoromethyl)pyrazol-3-yl] 1,1,1,2,3,3,3-heptafluoropropane-2-sulfonate]
≥ 80%: percent control (mortality, anti-feedant effect or growth inhibition) at 200 ppm (Spodoptera littoralis) | mortality at 200 ppm (Plutella xylostella; [1]) | mortality at 200 ppm (Diabrotica Balteata; [2]) | mortality at 200 ppm (Thrips tabaci; [3]) | mortality at 200 ppm (Tetranychus urticae; [4]) | mortality at 200 ppm (Euschistus heros; [5]) | mortality at 200 ppm (Myzus persicae; [6])
